Data taken from patent publication US11214594B2, “Antimicrobial peptide having synergistic antibacterial effect with antibiotics on multidrug resistant bacteria, and use thereof” (priority 2016, dated 2022).
Where a SMILES comes first, the peptide text is derived from it.

What was measured:
[1] = tested on: MDRAB 12036; type: cell-based, Acinetobacter baumannii
How it was run: (§1)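 Broth microdilution in MH medium: bacterial strains diluted to 2×10^6 CFU were mixed with equal volumes of peptide serially diluted twofold in MH medium.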

[2] = tested on: MDREC 1229; assay: MIC of antibiotic during combined treatment with antimicrobial peptide; type: cell-based, Escherichia coli
How it was run: (§2)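 Antibiotic MIC came from antibiotic dilutions added to bacteria (2×10^6 CFU/ml, MH medium) already combined with peptide serially diluted 2:1 from its own MIC. Swapping the roles of the two agents gave the peptide MIC.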

[3] = tested on: gram-negative bacteria; assay: MIC, summary statements for gram-negative bacteria; type: cell-based; details: gram-negative bacteria
Method: For the antibacterial activity, a minimal inhibitory concentration (MIC) of a peptide in which fungus bodies were not split in an MH medium with sufficient nutrients was measured.
Specifically, the strains described in the following [Table 2] were purchased and diluted with an MH medium such that the number of bacteria was 2×10^6 colony-forming units (CFUs), 100 μl of each of the diluted strains was aliquoted into a 96-well microtiter plate, and then 100 μl of a peptide solution diluted with the MH medium (solution diluted stepwise at 2: 1) was added to each well.

[4] = tested on: MDRPA 2002; type: cell-based, Pseudomonas aeruginosa
How it was run: as §1

[5] = tested on: MDRPA 2003; type: cell-based, Pseudomonas aeruginosa
How it was run: as §1

[6] = tested on: MRSA 3114; type: cell-based, Staphylococcus aureus; details: 3114
How it was run: as §1

[7] = tested on: MRSA 3126; type: cell-based, Staphylococcus aureus; details: 3126
How it was run: as §1

[8] = tested on: MDRAB 12035; assay: MIC of antibiotic during combined treatment with antimicrobial peptide; type: cell-based, Acinetobacter baumannii
How it was run: as §2

[9] = tested on: MDRST 8007; assay: Minimal inhibitory concentration (MIC), single agent; type: cell-based, Salmonella typhimurium; details: agent alone
How it was run: as §1

[10] = tested on: S. typhimurium; assay: microbe, parasite or virus in culture; type: cell-based, Salmonella typhimurium
How it was run: as §1

[11] = tested on: MDREC 1238; type: cell-based, Escherichia coli
How it was run: as §1

[12] = peptide treatment concentration 1 μg/ml
[13] = peptide treatment concentration 2 μg/ml
[14] = peptide treatment concentration 4 μg/ml
[15] = peptide treatment concentration 6 μg/ml
[16] = peptide treatment concentration 8 μg/ml
[17] = peptide treatment concentration 16 μg/ml
[18] = peptide treatment concentration 32 μg/ml
[19] = peptide treatment concentration 64 μg/ml

CC[C@H](C)[C@H](NC(=O)[C@H](CCCCN)NC(=O)[C@H](Cc1c[nH]c2ccccc12)NC(=O)[C@@H](N)CCCNC(=N)N)C(=O)N[C@@H](Cc1ccccc1)C(=O)N[C@@H](CCCCN)C(=O)N[C@@H](CCCCN)C(=O)N[C@H](C(=O)N1CCC[C@H]1C(=O)N[C@@H](CCCCN)C(=O)N[C@@H](Cc1ccccc1)C(=O)N[C@@H](CC(C)C)C(=O)N[C@@H](Cc1c[nH]cn1)C(=O)N[C@@H](CO)C(=O)N[C@@H](Cc1c[nH]c2ccccc12)C(=O)N[C@@H](CCCCN)C(=O)N[C@@H](CCCCN)C(=O)N[C@@H](Cc1ccccc1)C(N)=O)[C@@H](C)CC [PapMA-3, RWK IFK KIP KFL HSW KKF-NH2] (H-RWKIFKKIPKFLHSWKKF-NH2; N-terminus assumed)
comparable to papiliocin or melittin: Antibacterial activity (in words) [3]
8 µg/mL: Erythromycin MIC during combined treatment with peptide [8, 14]
0.25 µg/mL: Antibiotic MIC, Erythromycin [2, 17] | Erythromycin MIC during combined treatment with peptide [8, 16]
4 µg/mL: Antibiotic MIC, Erythromycin [2, 16] | Antibiotic MIC, Linezolid [2, 17] | Erythromycin MIC during combined treatment with peptide [8, 15]
>128 µg/mL: Antibiotic MIC, Linezolid [2, 12] | Antibiotic MIC, Vancomycin [2, 12] | Antibiotic MIC, Vancomycin [2, 13] | Antibiotic MIC, Vancomycin [2, 14] | Antibiotic MIC, Vancomycin [2, 15] | Minimal inhibitory concentration MIC [6] | Minimal inhibitory concentration MIC [7] | Linezolid MIC during combined treatment with peptide [8, 12] | Vancomycin MIC during combined treatment with peptide [8, 12] | Vancomycin MIC during combined treatment with peptide [8, 13]
128 µg/mL: Antibiotic MIC, Erythromycin [2, 12] | Antibiotic MIC, Vancomycin [2, 16] | Linezolid MIC during combined treatment with peptide [8, 13] | Vancomycin MIC during combined treatment with peptide [8, 14]
0 µg/mL: Antibiotic MIC, Erythromycin [2, 18] | Antibiotic MIC, Linezolid [2, 18] | Antibiotic MIC, Vancomycin [2, 18] | Antibiotic MIC, Erythromycin [2, 19] | Antibiotic MIC, Linezolid [2, 19] | Antibiotic MIC, Vancomycin [2, 19] | Erythromycin MIC during combined treatment with peptide [8, 17] | Linezolid MIC during combined treatment with peptide [8, 17] | Vancomycin MIC during combined treatment with peptide [8, 17] | Erythromycin MIC during combined treatment with peptide [8, 18] | Linezolid MIC during combined treatment with peptide [8, 18] | Vancomycin MIC during combined treatment with peptide [8, 18] | Erythromycin MIC during combined treatment with peptide [8, 19] | Linezolid MIC during combined treatment with peptide [8, 19] | Vancomycin MIC during combined treatment with peptide [8, 19]
64 µg/mL: Antibiotic MIC, Linezolid [2, 13] | Antibiotic MIC, Linezolid [2, 14] | Minimal inhibitory concentration MIC [11]
32 µg/mL: Antibiotic MIC, Erythromycin [2, 13] | Antibiotic MIC, Erythromycin [2, 14] | Antibiotic MIC, Linezolid [2, 15] | Erythromycin MIC during combined treatment with peptide [8, 12] | Linezolid MIC during combined treatment with peptide [8, 14] | Linezolid MIC during combined treatment with peptide [8, 15] | Vancomycin MIC during combined treatment with peptide [8, 15] | Minimal inhibitory concentration MIC [9] | Minimal inhibitory concentration MIC [10]
16 µg/mL: Minimal inhibitory concentration MIC [1] | Antibiotic MIC, Erythromycin [2, 15] | Antibiotic MIC, Linezolid [2, 16] | Antibiotic MIC, Vancomycin [2, 17] | Minimal inhibitory concentration MIC [4] | Minimal inhibitory concentration MIC [5] | Erythromycin MIC during combined treatment with peptide [8, 13] | Linezolid MIC during combined treatment with peptide [8, 16] | Vancomycin MIC during combined treatment with peptide [8, 16]

CC[C@H](C)[C@H](NC(=O)[C@H](CCCCN)NC(=O)[C@H](Cc1c[nH]c2ccccc12)NC(=O)[C@@H](N)CCCNC(=N)N)C(=O)N[C@@H](Cc1ccccc1)C(=O)N[C@@H](CCCCN)C(=O)N[C@@H](CCCCN)C(=O)N[C@H](C(=O)N1CCC[C@H]1C(=O)N[C@@H](CCCCN)C(=O)N[C@@H](Cc1ccccc1)C(=O)N[C@@H](CC(C)C)C(=O)N[C@@H](Cc1c[nH]cn1)C(=O)N[C@@H](CO)C(=O)N[C@@H](Cc1c[nH]c2ccccc12)C(=O)N[C@@H](CCCCN)C(=O)N[C@@H](CCCCN)C(=O)N[C@@H](Cc1c[nH]c2ccccc12)C(N)=O)[C@@H](C)CC [PapMA-4, RWK IFK KIP KFL HSW KKW-NH2] (H-RWKIFKKIPKFLHSWKKW-NH2; N-terminus assumed)
8 µg/mL: Erythromycin MIC during combined treatment with peptide [8, 14]
2 µg/mL: Erythromycin MIC during combined treatment with peptide [8, 16]
>128 µg/mL: Antibiotic MIC, Linezolid [2, 12] | Antibiotic MIC, Vancomycin [2, 12] | Antibiotic MIC, Vancomycin [2, 13] | Antibiotic MIC, Vancomycin [2, 14] | Antibiotic MIC, Vancomycin [2, 15] | Minimal inhibitory concentration MIC [6] | Minimal inhibitory concentration MIC [7] | Linezolid MIC during combined treatment with peptide [8, 12] | Vancomycin MIC during combined treatment with peptide [8, 12] | Vancomycin MIC during combined treatment with peptide [8, 13]
16 µg/mL: Minimal inhibitory concentration MIC [1] | Antibiotic MIC, Erythromycin [2, 14] | Antibiotic MIC, Erythromycin [2, 15] | Antibiotic MIC, Linezolid [2, 16] | Minimal inhibitory concentration MIC [4] | Minimal inhibitory concentration MIC [5] | Erythromycin MIC during combined treatment with peptide [8, 13]
0.25 µg/mL: Antibiotic MIC, Erythromycin [2, 17]
128 µg/mL: Antibiotic MIC, Vancomycin [2, 16] | Linezolid MIC during combined treatment with peptide [8, 13] | Vancomycin MIC during combined treatment with peptide [8, 14]
comparable to papiliocin or melittin: Antibacterial activity (in words) [3]
0 µg/mL: Antibiotic MIC, Erythromycin [2, 18] | Antibiotic MIC, Linezolid [2, 18] | Antibiotic MIC, Vancomycin [2, 18] | Antibiotic MIC, Erythromycin [2, 19] | Antibiotic MIC, Linezolid [2, 19] | Antibiotic MIC, Vancomycin [2, 19] | Erythromycin MIC during combined treatment with peptide [8, 17] | Linezolid MIC during combined treatment with peptide [8, 17] | Vancomycin MIC during combined treatment with peptide [8, 17] | Erythromycin MIC during combined treatment with peptide [8, 18] | Linezolid MIC during combined treatment with peptide [8, 18] | Vancomycin MIC during combined treatment with peptide [8, 18] | Erythromycin MIC during combined treatment with peptide [8, 19] | Linezolid MIC during combined treatment with peptide [8, 19] | Vancomycin MIC during combined treatment with peptide [8, 19]
32 µg/mL: Antibiotic MIC, Erythromycin [2, 13] | Antibiotic MIC, Vancomycin [2, 17] | Erythromycin MIC during combined treatment with peptide [8, 12] | Linezolid MIC during combined treatment with peptide [8, 16] | Minimal inhibitory concentration MIC [9] | Minimal inhibitory concentration MIC [10] | Minimal inhibitory concentration MIC [11]
64 µg/mL: Antibiotic MIC, Erythromycin [2, 12] | Antibiotic MIC, Linezolid [2, 13] | Antibiotic MIC, Linezolid [2, 14] | Antibiotic MIC, Linezolid [2, 15] | Linezolid MIC during combined treatment with peptide [8, 14] | Linezolid MIC during combined treatment with peptide [8, 15] | Vancomycin MIC during combined treatment with peptide [8, 15] | Vancomycin MIC during combined treatment with peptide [8, 16]
4 µg/mL: Antibiotic MIC, Erythromycin [2, 16] | Antibiotic MIC, Linezolid [2, 17] | Erythromycin MIC during combined treatment with peptide [8, 15]
